# Test results: patent publication US7223759B2, “Antibacterial 3,5-diaminopiperidine-substituted aromatic and heteroaromatic compounds” (Anadys Pharmaceuticals, Inc., priority 2003, dated 2007)
# Read-outs that look alike come from different tables or passages of the source.
# Test system: Escherichia coli (ATCC25922) or Staphylococcus aureus (ATCC25923)
# Experiment: Antibacterial MIC, microdilution method in Mueller-Hinton medium
# Type: cell-based
# Settings: Escherichia coli, 18 h, read-out: Potency (MIC)
# In short: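 Two-fold serial dilutions from 64 to 0.5 μg/ml, in duplicate, by broth microdilution in Mueller-Hinton medium (NCCLS M7-A5). MIC taken as the lowest concentration preventing visible growth after 18 h at 35° C.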
# [1] = MIC in E. coli or S. aureus, two-fold serial dilutions 64 to 0.5 μg/ml in duplicate, 18 hours of incubation at 35° C.
MIC [1] [µg/mL],SMILES,MIC [µg/mL]
–,"N[C@@H]1C[C@H](N)CN(c2nc(Nc3ccc(C(=O)Nc4ccc5c(c4)OC(F)(F)O5)c(O)c3)nc(N3C[C@H](N)C[C@H](N)C3)n2)C1 [N-[4-(2,2-difluoro-benzo[1,3]dioxol-5-ylcarbamoyl)-3-hydroxy-phenyl]-4,6-Bis-((3R,5S)-3,5-diamino-piperidin-1-yl)-[1,3,5]triazine-2-amine]",< 16
< 64,"CC(C)(C)C(=O)Nc1ccc(Nc2nc(N3CCCCC3)nc(N3CCCCC3)n2)cc1O.Cl [N-[4-(2,2-dimethyl-propionylammino)-3-hydroxy-phenyl]-4,6-Bis-((3R,5S)-3,5-diamino-piperidin-1-yl)-[1,3,5]triazine-2-amine]",–
–,"N[C@@H]1C[C@H](N)CN(c2nc(Nc3ccc(NC(=O)c4cccc(O)c4O)c(O)c3)nc(N3C[C@H](N)C[C@H](N)C3)n2)C1 [N-[4-(2,3-dihydroxy-benzoylamino)-3-hydroxy-phenyl]-4,6-Bis-((3R,5S)-3,5-diamino-piperidin-1-yl)-[1,3,5]triazine-2-amine]",< 16
–,"Cc1cc(Nc2nc(N3C[C@H](N)C[C@H](N)C3)nc(N3C[C@H](N)C[C@H](N)C3)n2)ccc1NC(=O)c1cccc(O)c1O [N-[4-(2,3-dihydroxy-benzoylamino)-3-methyl-phenyl]-4,6-Bis-((3R,5S)-3,5-diamino-piperidin-1-yl)-[1,3,5]triazine-2-amine]",< 16
–,"N[C@@H]1C[C@H](N)CN(c2nc(Nc3ccc(NC(=O)c4cccc(O)c4O)cc3)nc(N3C[C@H](N)C[C@H](N)C3)n2)C1 [N-[4-(2,3-dihydroxy-benzoylamino)-phenyl]-4,6-Bis-((3R,5S)-3,5-diamino-piperidin-1-yl)-[1,3,5]triazine-2-amine]",< 16
< 16,"Cl.O=C(Nc1ccc(Cl)cc1Cl)c1ccc(Nc2nc(N3CCCCC3)nc(N3CCCCC3)n2)cc1O [N-[4-(2,4-dichloro-phenylcarbamoyl)-3-hydroxy-phhenyl]-4,6-Bis-((3R,5S)-3,5-diamino-piperidin-1-yl)-[1,3,5]triazine-2-amine]",–
–,"Cc1cc(O)c(C)c(O)c1C(=O)Nc1ccc(Nc2nc(N3C[C@H](N)C[C@H](N)C3)nc(N3C[C@H](N)C[C@H](N)C3)n2)cc1 [N-[4-(2,4-dihydroxy-3,6-dimethyl-benzoylamino)-phenyl]-4,6-Bis-((3R,5S)-3,5-diamino-piperidin-1-yl)-[1,3,5]triazine-2-amine]",< 16
–,"Cc1cc(NC(=O)c2ccc(O)cc2O)ccc1Nc1nc(N2C[C@H](N)C[C@H](N)C2)nc(N2C[C@H](N)C[C@H](N)C2)n1 [N-[4-(2,4-dihydroxy-benzoylamino)-2-methyl-phenyl]-4,6-Bis-((3R,5S)-3,5-diamino-piperidin-1-yl)-[1,3,5]triazine-2-amine]",< 64
–,"N[C@@H]1C[C@H](N)CN(c2nc(Nc3ccc(NC(=O)c4ccc(O)cc4O)c(O)c3)nc(N3C[C@H](N)C[C@H](N)C3)n2)C1 [N-[4-(2,4-dihydroxy-benzoylamino)-3-hydroxy-phenyl]-4,6-Bis-((3R,5S)-3,5-diamino-piperidin-1-yl)-[1,3,5]triazine-2-amine]",< 16
–,"N[C@@H]1C[C@H](N)CN(c2nc(Nc3ccc(NC(=O)c4ccc(O)cc4O)cc3)nc(N3C[C@H](N)C[C@H](N)C3)n2)C1 [N-[4-(2,4-dihydroxy-benzoylamino)-phenyl]-4,6-Bis-((3R,5S)-3,5-diamino-piperidin-1-yl)-[1,3,5]triazine-2-amine]",< 16
–,"COc1ccc(OC)c(NC(=O)c2ccc(Nc3nc(N4C[C@H](N)C[C@H](N)C4)nc(N4C[C@H](N)C[C@H](N)C4)n3)cc2O)c1 [N-[4-(2,5-dimethoxy-phenylcarbamoyl)-3-hydroxy-phenyl]-4,6-Bis-((3R,5S)-3,5-diamino-piperidin-1-yl)-[1,3,5]triazine-2-amine]",< 16
< 64,"Cl.O=C(Nc1ccc(Nc2nc(N3CCCCC3)nc(N3CCCCC3)n2)cc1O)c1c(Cl)cccc1Cl [N-[4-(2,6-dichloro-benzoylamino)-3-hydroxy-phenyl]-4,6-Bis-((3R,5S)-3,5-diamine-piperidin-1-yl)-[1,3,5]triazine-2-amine]",–
–,"COc1cccc(OC)c1C(=O)Nc1ccc(Nc2nc(N3C[C@H](N)C[C@H](N)C3)nc(N3C[C@H](N)C[C@H](N)C3)n2)cc1O [N-[4-(2,6-dimethoxy-benzoylamino)-3-hydroxy-phenyl]-4,6-Bis-((3R,5S)-3,5-diamino-piperidin-1-yl)-[1,3,5]triazine-2-amine]",< 64
> 64,"Cc1cc(NS(=O)(=O)c2ccc(Nc3nc(N4C[C@H](N)C[C@H](N)C4)nc(N4C[C@H](N)C[C@H](N)C4)n3)cc2)nc(C)n1.Cl [N-[4-(2,6-dimethyl-pyrimidin-4-ylsulfamoyl)-phenyl]-4,6-Bis-((3R,5S)-3,5-diamino-piperidin-1-yl)-[1,3,5]triazine-2-amine]",–
< 64,"Cl.O=C(Nc1cc(C(F)(F)F)ccc1Cl)c1ccc(Nc2nc(N3CCCCC3)nc(N3CCCCC3)n2)cc1O [N-[4-(2-chloro-5-trifluoromethyl-phenylcarbamoyl)-3-hydroxy-phenyl]-4,6-Biss-((3R,5S)-3,5-diamino-piperidin-1-yl)-[1,3,5]triazine-2-amine]",–
–,"N[C@@H]1C[C@H](N)CN(c2nc(Nc3ccc(NC(=O)c4ccccc4Cl)c(O)c3)nc(N3C[C@H](N)C[C@H](N)C3)n2)C1 [N-[4-(2-chloro-benzoylamino)-3-hydroxy-phenyl]-4,6-Bis-((3R,5S)-3,5-diamino-piperidin-1-yl)-[1,3,5]triazine-2-amine]",< 64
< 64,"Cl.O=C(Nc1ccccc1Cl)c1ccc(Nc2nc(N3CCCCC3)nc(N3CCCCC3)n2)cc1O [N-[4-(2-choro-phenylcarbamoyl)-3-hydroxy-phenyl]-4,6-Bis-((3R,5S)-3,5-diamino-piperidin-1-yl)-[1,3,5]triazine-2-amine]",–
–,"CCN(CC)CCNC(=O)c1ccc(Nc2nc(N3C[C@H](N)C[C@H](N)C3)nc(N3C[C@H](N)C[C@H](N)C3)n2)cc1 [N-[4-(2-diethylamino-ethylcarbamoyl)-phenyl]-4,6-Bis-((3R,5S)-3,5-diamino-piperidin-1-yl)-[1,3,5]triazine-2-amine]",< 64
–,"N[C@@H]1C[C@H](N)CN(c2nc(Nc3ccc(C(=O)Nc4ccccc4F)c(O)c3)nc(N3C[C@H](N)C[C@H](N)C3)n2)C1 [N-[4-(2-fluoro-phenylcarbamoyl)-3-hydroxy-phenyl]-4,6-Bis-((3R,5S)-3,5-diamino-piperidin-1-yl)-[1,3,5]triazine-2-amine]",< 64
–,"CC(C)c1cc(C(=O)Nc2ccc(Nc3nc(N4C[C@H](N)C[C@H](N)C4)nc(N4C[C@H](N)C[C@H](N)C4)n3)cc2)c(O)c(C(C)C)c1 [N-[4-(2-hydroxy-3,5-diisopropyl-benzoylamino)-phenyl]-4,6-Bis-((3R,5S)-3,5-diamino-piperidin-1-yl)-[1,3,5]triazine-2-amine]",< 16
–,"COc1cccc(C(=O)Nc2ccc(Nc3nc(N4C[C@H](N)C[C@H](N)C4)nc(N4C[C@H](N)C[C@H](N)C4)n3)cc2)c1O [N-[4-(2-hydroxy-3-methoxy-benzoylamino)-phenyl]-4,6-Bis-((3R,5S)-3,5-diamino-piperidin-1-yl)-[1,3,5]triazine-2-amine]",< 64

SMILES,MIC [1] [µg/mL],MIC [µg/mL]
"Cc1cc(Nc2nc(N3C[C@H](N)C[C@H](N)C3)nc(N3C[C@H](N)C[C@H](N)C3)n2)ccc1NC(=O)c1ccc(O)cc1O [N-[4-(2,4-dihydroxy-benzoylamino)-3-methyl-phenyl]-4,6-Bis-((3R,5S)-3,5-diamino-piperidin-1-yl)-[1,3,5]triazine-2-amine]",< 16,–
